For assay [1], the target named is T1, EP3 receptor (Homo sapiens, UniProt P43115).
T1 construct: purchased Millipore HTS092M
T1 sequence (P43115 1-390): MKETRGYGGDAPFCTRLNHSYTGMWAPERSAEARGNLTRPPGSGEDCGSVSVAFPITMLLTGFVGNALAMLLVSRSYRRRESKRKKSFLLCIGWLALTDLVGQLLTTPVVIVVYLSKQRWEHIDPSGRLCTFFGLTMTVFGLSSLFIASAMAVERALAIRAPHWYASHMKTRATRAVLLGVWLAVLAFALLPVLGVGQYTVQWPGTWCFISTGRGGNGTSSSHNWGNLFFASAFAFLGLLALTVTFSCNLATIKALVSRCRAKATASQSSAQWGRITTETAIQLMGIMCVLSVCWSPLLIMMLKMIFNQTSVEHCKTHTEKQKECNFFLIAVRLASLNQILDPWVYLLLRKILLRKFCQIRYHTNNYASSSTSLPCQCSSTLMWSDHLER
The assay is described as follows: [3H]-PGE2 binding assay (EP3 competition binding). Conditions: read-out: [3H]-PGE2 Binding Ki. The method in brief: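 Scintillation-bead competition binding with EP3 membranes (2 μg/well), 2 nM [3H]-PGE2, 0.1% DMSO, in 50 mM Tris, 10 mM MgCl2, 1 mM EDTA, pH 7.4.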

For assay [2], the target named is T1, EP3 receptor. The assay is described as follows: CHO cell cAMP assay (forskolin and sulprostone stimulated, HTRF). Format: cell-based. Conditions: CHO cells; sulprostone 700 nM (EC80) and FSK 2 μM (EC70), 37° C. for 30 minutes; read-out: CHO_cAMP IC50.

The values below come from US10336701B2, “Pyridin-2-one derivatives of formula (II) useful as EP3 receptor antagonists” (Janssen Pharmaceutica NV, priority 2017, dated 2019).

A value given as a limit tells only on which side of the number the result lay.

For the compound `CCC(CC)(CC1OC(=O)NC1=O)c1ccc(-c2ccc3cccc(F)c3c2)[nH]c1=O` (centres unmarked) [compound 9, 5-(2-ethyl-2-(6-(8-fluoronaphthalen-2-yl)-2-oxo-1,2-dihydropyridin-3-yl)butyl)oxazolidine-2,4-dione], the Ki on EP3 receptor [1] amounted to 0.023 µM. For the same compound, at EP3 receptor [2], the IC50 was 0.108 µM.

In the case of `CC(C)C(C(=O)NC1CCNC1)c1ccc(-c2ccc3cccc(F)c3c2)[nH]c1=O` (centres unmarked) [compound 178, 2-(6-(8-fluoronaphthalen-2-yl)-2-oxo-1,2-dihydropyridin-3-yl)-3-methyl-N-(pyrrolidin-3-yl)butanamide], the Ki at EP3 receptor [1] was 0.02 µM. Besides, the 50% inhibitory concentration (IC50) on EP3 receptor [2] stood at 0.22 µM.

As to `CC(C)C(c1ccc(-c2ccc3cccc(F)c3c2)[nH]c1=O)n1cnc(N)n1` (centres unmarked) [compound 161, 3-(1-(3-amino-1H-1,2,4-triazol-1-yl)-2-methylpropyl)-6-(8-fluoronaphthalen-2-yl)pyridin-2(1H)-one], at EP3 receptor [1], the inhibitory constant (Ki) amounted to 0.027 µM. Also, the IC50 on EP3 receptor [2] turned out to be 0.095 µM.

On to `CCOC(=O)C(=C1CCCCC1)c1ccc(-c2ccc3ccccc3c2)[nH]c1=O` [compound 281, ethyl 2-cyclohexylidene-2-(6-(naphthalen-2-yl)-2-oxo-1,2-dihydropyridin-3-yl)acetate], for which, at EP3 receptor [1], the Ki was 0.037 µM. Further, the half-maximal inhibitory concentration (IC50) at EP3 receptor [2] was 0.527 µM.

In the case of `CCn1ncc2c(F)cc(-c3ccc(C(CC)(CC)c4nnco4)c(=O)[nH]3)cc21` [Compound #42, 3-(3-(1,3,4-oxadiazol-2-yl)pentan-3-yl)-6-(1-ethyl-4-fluoro-1H-indazol-6-yl)pyridin-2(1H)-one], the inhibitory constant (Ki) on EP3 receptor [1] was 0.009 µM. Further, on EP3 receptor [2], the half-inhibitory concentration (IC50) was 0.02 µM.

Regarding `CC(C)C(/C=C1\OC(=O)NC1=O)c1ccc(-c2ccc3c(ccn3C)c2)[nH]c1=O` (centres unmarked) [compound 118, (Z)-5-(3-methyl-2-(6-(1-methyl-1H-indol-5-yl)-2-oxo-1,2-dihydropyridin-3-yl)butylidene)oxazolidine-2,4-dione], the inhibition constant (Ki) at EP3 receptor [1] was 0.044 µM. Moreover, the IC50 at EP3 receptor [2] is 0.131 µM.

On to `CC(C)C(C(=O)NCCN(C)C)c1ccc(-c2ccc3c(c2)OCCN3C)[nH]c1=O` (centres unmarked) [compound 244, N-(2-(dimethylamino)ethyl)-3-methyl-2-(6-(4-methyl-3,4-dihydro-2H-benzo[b][1,4]oxazin-7-yl)-2-oxo-1,2-dihydropyridin-3-yl)butanamide], for which, at EP3 receptor [1], the Ki came to 0.501 µM. Further, the IC50 on EP3 receptor [2] turned out to be 2.39 µM.

`CC(C)C(N/C(N)=N/C#N)c1ccc(-c2ccc3cccc(F)c3c2)[nH]c1=O` (centres unmarked) [compound 268, (E)-2-cyano-1-(1-(6-(8-fluoronaphthalen-2-yl)-2-oxo-1,2-dihydropyridin-3-yl)-2-methylpropyl)quanidine]: at EP3 receptor [1], the inhibition constant (Ki) was 0.006 µM. Besides, the IC50 at EP3 receptor [2] came out at 0.017 µM.

Turning to `CC(C)C(Cc1cc(Cl)c(-c2ccc3cccc(F)c3c2)[nH]c1=O)c1noc(=O)[nH]1` (centres unmarked) [Compound #272, 3-(1-(5-chloro-6-(8-fluoronaphthalen-2-yl)-2-oxo-1,2-dihydropyridin-3-yl)-3-methylbutan-2-yl)-1,2,4-oxadiazol-5(4H)-one], on EP3 receptor [1], the Ki was more than 10 µM. The 50% inhibitory concentration (IC50) on EP3 receptor [2] was more than 20 µM.

With `O=c1[nH]c(-c2ccc3ccccc3c2)ccc1C1CCNCC1` [compound 194, 6-(naphthalen-2-yl)-3-(piperidin-4-yl)pyridin-2(1H)-one], the inhibitory constant (Ki) at EP3 receptor [1] is more than 10 µM. The half-inhibitory concentration (IC50) on EP3 receptor [2] was more than 20 µM.

Turning to `CC(C)C(Cc1ccc(-c2ccc3cccc(F)c3c2)[nH]c1=O)c1nnc[nH]1` (centres unmarked) [compound 309, 6-(8-Fluoronaphthalen-2-yl)-3-(3-methyl-2-(4H-1,2,4-triazol-3-yl)butyl)pyridin-2(1H)-one], the Ki on EP3 receptor [1] was found to be 0.012 µM. Besides, the concentration for half-maximal inhibition (IC50) at EP3 receptor [2] is 0.066 µM.

`O=c1[nH]c(-c2ccc3ccccc3c2)ccc1C1CCc2n[nH]cc2C1` (centres unmarked) [compound 195, 6-(naphthalen-2-yl)-3-(4,5,6,7-tetrahydro-2H-indazol-5-yl)pyridin-2(1H)-one]: at EP3 receptor [1], the Ki was 0.042 µM. On EP3 receptor [2], the IC50 worked out at 0.286 µM.

As to `CC1(c2ccc(-c3ccc4ccccc4c3)[nH]c2=O)CNC(N)=N1` (centres unmarked) [compound 287, 3-(2-amino-4-methyl-4,5-dihydro-1H-imidazol-4-yl)-6-(naphthalen-2-yl)pyridin-2(1H)-one], the inhibitory constant (Ki) at EP3 receptor [1] was 0.157 µM. Also, at EP3 receptor [2], the IC50 came to 8.68 µM.

For `CC(C)C(C(=O)NC1CN(C)C1)c1ccc(-c2ccc3cccc(F)c3c2)[nH]c1=O` (centres unmarked) [compound 182, 2-(6-(8-fluoronaphthalen-2-yl)-2-oxo-1,2-dihydropyridin-3-yl)-3-methyl-N-(1-methylazetidin-3-yl)butanamide], the inhibition constant Ki on EP3 receptor [1] turned out to be 0.041 µM. Further, the IC50 at EP3 receptor [2] amounted to 0.638 µM.

For the compound `CCn1cc2ccc(-c3ccc(C(CC4OC(=O)NC4=O)C(C)C)c(=O)[nH]3)cc2n1` (centres unmarked) [compound 120, 5-(2-(6-(2-ethyl-2H-indazol-6-yl)-2-oxo-1,2-dihydropyridin-3-yl)-3-methylbutyl)oxazolidine-2,4-dione], the Ki on EP3 receptor [1] was more than 10 µM. At EP3 receptor [2], the IC50 was more than 20 µM.

On to `CCn1ncc2c(F)cc(-c3ccc(C(c4noc(=O)[nH]4)C(C)C)c(=O)[nH]3)cc21` (centres unmarked) [Compound #277, 3-(1-(6-(1-ethyl-4-fluoro-1H-indazol-6-yl)-2-oxo-1,2-dihydropyridin-3-yl)-2-methylpropyl)-1,2,4-oxadiazol-5(4H)-one], for which the Ki on EP3 receptor [1] turned out to be 0.107 µM. Besides, on EP3 receptor [2], the 50% inhibitory concentration (IC50) came to 0.548 µM.

As to `CCC(/C=C1/OC(=O)NC1=O)(CC)c1ccc(-c2ccc3c(c2)OC(C)(C)C=C3)[nH]c1=O` [compound 28, 5-(2-(6-(2,2-dimethyl-2H-chromen-7-yl)-2-oxo-1,2-dihydropyridin-3-yl)-2-ethylbutylidene)oxazolidine-2,4-dione], on EP3 receptor [1], the Ki was found to be 5.62 µM. Besides, at EP3 receptor [2], the half-inhibitory concentration (IC50) was more than 20 µM.

Turning to `O=C1NC(=O)C2(CCC(c3ccc(-c4ccc5ccccc5c4)[nH]c3=O)CC2)N1` (centres unmarked) [compound 203, 8-(6-(naphthalen-2-yl)-2-oxo-1,2-dihydropyridin-3-yl)-1,3-diazaspiro[4.5]decane-2,4-dione], on EP3 receptor [1], the Ki was 0.106 µM. In addition, the half-maximal inhibitory concentration (IC50) at EP3 receptor [2] turned out to be 1.41 µM.

`CCn1ncc2c(F)cc(-c3ccc(C(/C=C4\CCNC4=O)(CC)CC)c(=O)[nH]3)cc21` [compound 13, (E)-6-(1-ethyl-4-fluoro-1H-indazol-6-yl)-3-(3-((2-oxopyrrolidin-3-ylidene)methyl)pentan-3-yl)pyridin-2(1H)-one]: the Ki at EP3 receptor [1] amounted to 0.003 µM. Moreover, at EP3 receptor [2], the IC50 turned out to be 0.022 µM.

Turning to `CC(C)C(Cc1ccc(-c2ccc3cccc(F)c3c2)[nH]c1=O)c1ncc[nH]1` (centres unmarked) [compound 307, 3-(2-(1H-Imidazol-2-yl)-3-methylbutyl)-6-(8-fluoronaphthalen-2-yl)pyridin-2(1H)-one], at EP3 receptor [1], the inhibition constant Ki was determined as 0.053 µM. For the same compound, the IC50 on EP3 receptor [2] was 0.385 µM.

`CCn1ncc2c(F)cc(-c3ccc(C4CCN(S(=O)(=O)C(C)C)CC4)c(=O)[nH]3)cc21` [compound 198, 6-(1-ethyl-4-fluoro-1H-indazol-6-yl)-3-(1-(isopropylsulfonyl)piperidin-4-yl)pyridin-2(1H)-one]: at EP3 receptor [1], the inhibitory constant (Ki) was determined as 0.019 µM. The IC50 on EP3 receptor [2] came out at 0.53 µM.

With `CC(C)C1(c2ccc(-c3ccc4cccc(F)c4c3)[nH]c2=O)C(=O)Nc2nccn21` (centres unmarked) [compound 155, 3-(6-(8-fluoronaphthalen-2-yl)-2-oxo-1,2-dihydropyridin-3-yl)-3-isopropyl-1H-imidazo[1,2-a]imidazol-2(3H)-one], the Ki at EP3 receptor [1] came to 0.005 µM. Besides, the IC50 at EP3 receptor [2] was found to be 0.02 µM.
